Test results taken from patent publication US6531288B1, “Methods to identify compounds that affect the expression level of the syntaxin-1 A encoding gene” (University of British Columbia, priority 1999, dated 2003).
Starred links: 1 amine or outer side, 2 acyl side, 3 side chain; linkers in the order of their positions; H or OH if unused. Positions of bridges follow the written chain, without caps; N, C: chain ends. Non-standard residues stand in square brackets, D forms with d. Residues, ends and D or L forms follow the SMILES beside them. Chains are numbered I, II in the order given. Actinocin(9to1) = Cc1c2oc3c(C)ccc(C(=O)[*:1])c3nc-2c(C(=O)[*:2])c(N)c1=O; NMeV = CN[C@H](C(=O)O)C(C)C; Sar = CNCC(=O)O

Legend:
syntaxin-1A [1] = assay: Syntaxin-1A expression in untransfected HEK293 cells treated with agents that alter intracellular calcium; format: cell-based; conditions: for syntaxin-1A mRNA levels: untransfected cells / absence of α1A transfection
syntaxin-1A [2] = assay: Syntaxin-1A expression (mRNA/protein) in HEK293 cells transfected with the α1A P/Q type calcium channel; format: cell-based, human; conditions: for calcium dependent induction of syntaxin-1A: α1A transfected cells
syntaxin-1A [3] = assay: Syntaxin-1A expression in cerebellar granule cells (endogenous P/Q type channels); format: cell-based
Description: The foregoing results in HEK293 transfected cells were correlated with the endogenous P/Q type channels in neurons. Syntaxin-1A is basally expressed in cerebellar granule cells, but this is inhibited by ω Agatoxin IVA, which is known to inhibit calcium P/Q type channels specifically. […] Treatment of these cerebellar granule cells, which had been incubated in ω Agatoxin IVA with thapsigargin recovered the syntaxin-1A expression.
Syntaxin-1A expression was inhibited by the same agents as had inhibited it in HEK293 cells including inhibitors of ryanodine —or IP3—induced calcium release from stores, of CaM kinase II/IV, and of PKA, or MAPKK.

C[N+](C)(C)CCOC(N)=O [carbachol]
calcium release from ryanodine- and IP3-sensitive stores (syntaxin-1A [1]; untransfected cells): activated | syntaxin-1A mRNA levels (syntaxin-1A [1]): stimulated

C[C@H](CCC(=O)O)C[C@H](C)C[C@H](C)C(=O)/C=C(\O)[C@H](C)C[C@H](C)C/C=C/[C@@H](C)[C@@H](O)[C@@H](C)[C@@H](O)C[C@@H]1CC[C@@](C)([C@H]2CC[C@@](C)([C@@H](C)O)O2)O1 [ionomycin]
levels giving maximal activation of syntaxin-1A production (syntaxin-1A [1]): 50 to 200 nM

CC(=O)OCOC(=O)CN(CCOCCOCCN(CC(=O)OCOC(C)=O)CC(=O)OCOC(C)=O)CC(=O)OCOC(C)=O [EGTA-AM]
calcium dependent induction of syntaxin-1A (syntaxin-1A [2]): blocked

C/C=C(/C)C(=O)O[C@H]1C(C)=C2[C@H]([C@@H]1OC(=O)CCCCCCC)[C@@](C)(OC(C)=O)C[C@H](OC(=O)CCC)[C@@]1(O)[C@H]2OC(=O)[C@@]1(C)O [thapsigargin]
syntaxin-1A expression after P/Q block (syntaxin-1A [3]; cerebellar granule cells which had been incubated in ω Agatoxin IVA): recovered | syntaxin-1A expression (syntaxin-1A [1]; untransfected cells): stimulated

CC(=O)OCOC(=O)CN(CC(=O)OCOC(C)=O)c1ccccc1OCCOc1ccccc1N(CC(=O)OCOC(C)=O)CC(=O)OCOC(C)=O [BAPTA-AM]
calcium dependent induction of syntaxin-1A (syntaxin-1A [2]): blocked

Cc1c2oc3c(C)ccc(C(=O)N[C@@H]4C(=O)N[C@H](C(C)C)C(=O)N5CCC[C@H]5C(=O)N(C)CC(=O)N(C)[C@@H](C(C)C)C(=O)O[C@@H]4C)c3nc-2c(C(=O)N[C@@H]2C(=O)N[C@H](C(C)C)C(=O)N3CCC[C@H]3C(=O)N(C)CC(=O)N(C)[C@@H](C(C)C)C(=O)O[C@@H]2C)c(N)c1=O [actinomycin D] (I: T[dV]P[Sar][NMeV] / II: T[dV]P[Sar][NMeV]; ester I:1-I:C, II:1-II:C; linker I:N-II:N via Actinocin(9to1))
mRNA corresponding to syntaxin-1A (syntaxin-1A [2]; HEK293 cells transfected with the α1A P/Q type calcium channel): inhibited

ω Agatoxin IVA
syntaxin-1A expression (basal, calcium dependent) (syntaxin-1A [3]; cerebellar granule cells): inhibited

Cn1c(=O)c2c(ncn2C)n(C)c1=O [caffeine]
calcium release from ryanodine- and IP3-sensitive stores (syntaxin-1A [1]; untransfected cells): activated | syntaxin-1A mRNA levels (syntaxin-1A [1]): stimulated
